Data on one compound can be found in article PMC2664092 (Biochemistry, 2008).

The assay addresses T1, LpxL (Escherichia coli, UniProt P0ACV0).
T1 sequence (P0ACV0 1-306): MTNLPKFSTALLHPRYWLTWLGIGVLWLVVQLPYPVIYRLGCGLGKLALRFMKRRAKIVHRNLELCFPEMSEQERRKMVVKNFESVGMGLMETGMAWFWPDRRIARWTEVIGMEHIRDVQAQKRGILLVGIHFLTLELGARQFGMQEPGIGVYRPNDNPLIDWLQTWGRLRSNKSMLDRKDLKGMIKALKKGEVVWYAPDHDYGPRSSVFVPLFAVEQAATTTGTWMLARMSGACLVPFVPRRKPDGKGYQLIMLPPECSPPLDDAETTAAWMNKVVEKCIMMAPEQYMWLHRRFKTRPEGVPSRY
The assay can be described thus: […] TLC acyltransferase assay, PhosphorImager. The class given is biochemical. As to conditions: read-out: apparent KM; 90 µM lauroyl-ACP (saturating); 0.1% Triton X-100, 0.1 mg/mL BSA, 5 mM MgCl2, 50 mM NaCl, 50 mM HEPES pH 7.5; 30 °C (standard assay); labelled compound.

As for `CCCCCCCCCCC[C@@H](O)CC(=O)N[C@H]1[C@H](OC[C@H]2O[C@H](OP(=O)(O)O)[C@H](NC(=O)C[C@H](O)CCCCCCCCCCC)[C@@H](OC(=O)C[C@H](O)CCCCCCCCCCC)[C@@H]2O)O[C@H](CO[C@]2(C(=O)O)C[C@@H](O[C@]3(C(=O)O)C[C@@H](O)[C@@H](O)[C@@H]([C@H](O)CO)O3)[C@@H](O)[C@@H]([C@H](O)CO)O2)[C@@H](OP(=O)(O)O)[C@@H]1OC(=O)C[C@H](O)CCCCCCCCCCC` [Kdo2-lipid IVA], the Km (commonly the substrate concentration at which the rate is half of its maximum) was found to be 15 ± 3 µM.
